Source: patent publication US8404643B2, “Metastin derivatives and use thereof” (priority 2005, dated 2013)
Numbered stars: 1 amine (or outer) side, 2 acyl side, 3 side chain; on linkers, the order of the positions; unused ones are H or OH. Square brackets hold non-standard residues; d marks the D form. Peptide text beside a SMILES is read from it. * marks the point of attachment. Nip(3R) = O=C([C@@H]1CCCN([*:1])C1)[*:2]; Arg(Me) = CNC(=N)NCCC[C@H](N)C(=O)O; Dap(CONH2) = NC(=O)NC[C@H](N)C(=O)O; Hyp = O=C(O)[C@@H]1C[C@@H](O)CN1; d4Pal = N[C@H](Cc1ccncc1)C(=O)O; Pip = O=C(O)[C@@H]1CCCCN1; NMeA = CN[C@@H](C)C(=O)O; Thz = O=C(O)[C@@H]1CSCN1; Aze = O=C(O)[C@@H]1CCN1; 2Abz = Nc1ccccc1C(=O)O; Aib = CC(C)(N)C(=O)O; NHBn = c1ccc(CN*)cc1; azaGly = NNC(=O)O; Sar = CNCC(=O)O

molecular target: T1, hOT7T175 (Homo sapiens, UniProt Q969F8); test: Assay for intracellular Ca ion level-increasing activity using FLIPR; assay type: cell-based; conditions: hOT7T175/CHO cells, relative to Metastin (1-54)
T1 construct: expressed in transfected cells
T1 sequence (Q969F8 whole entry L364H): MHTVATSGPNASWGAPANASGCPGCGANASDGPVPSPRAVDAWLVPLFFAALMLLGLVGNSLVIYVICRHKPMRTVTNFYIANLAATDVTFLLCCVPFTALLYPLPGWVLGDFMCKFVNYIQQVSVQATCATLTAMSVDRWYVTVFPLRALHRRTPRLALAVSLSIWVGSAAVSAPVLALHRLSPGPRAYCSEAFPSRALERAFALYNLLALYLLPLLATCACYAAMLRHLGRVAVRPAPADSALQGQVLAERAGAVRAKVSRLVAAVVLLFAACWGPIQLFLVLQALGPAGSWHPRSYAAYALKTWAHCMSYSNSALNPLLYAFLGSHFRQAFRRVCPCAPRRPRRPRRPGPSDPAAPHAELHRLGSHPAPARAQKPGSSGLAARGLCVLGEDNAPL
Experimental: In accordance with the method described in JPA 2000-312590, the intracellular Ca ion level-increasing activity was measured using FLIPR.
The stable expression cell line hOT7T175 was obtained by transfection of the expression plasmid pAK-rOT175 for animal cells into CHO/dhfr^− cells, using CellPhect Transfection Kit (Amersham Pharmacia Biotech, Inc.). First, 240 μL of Buffer A (attached to CellPhect Transfection Kit) was added to 9.6 μg of plasmid DNA dissolved in 240 μL of distilled water followed by stirring. After the mixture was settled for 10 minutes, 480 μL of Buffer B (attached to CellPhect Transfection Kit) was added to the mixture, which was vigorously stirred to form liposomes containing the DNA. Then, 4×10^5 CHO/dhfr^− cells (obtained from ATCC) were inoculated on a 60 mm Petri dish. After culturing the cells in Ham's F-12 medium (Nissui Seiyaku Co., Ltd.) supplemented with 10% fetal bovine serum (BIO WHITTAKER, Inc.) at 37° C. for 2 days in 5% carbon dioxide gas, […] of the liposomes were dropwise added to the cells on the Petri dish. After culturing the cells at 37° C. for 6 hours in 5% carbon dioxide gas, the cells were washed twice with serum-free Ham's F-12 medium and 3 mL of 15% glycerol was added to the cells on the Petri dish followed by treatment for 2 minutes. The cells were again washed twice with serum-free Ham's F-12 medium followed by incubation in Ham's F-12 medium supplemented with 10% fetal bovine serum at 37° C. for 15 hours in 5% carbon dioxide gas. The cells were dispersed by trypsin treatment to recover from the Petri dish. The recovered cells were inoculated on a 6-well plate in 1.25×10^4 cells/well and incubation was initiated at 37° C. in Dulbecco's modified Eagle medium (DMEM) medium (Nissui Seiyaku Co., Ltd.) containing 10% dialyzed fetal bovine serum (JRH BIOSCIENCES, Inc.) in 5% carbon dioxide gas. The plasmid-transfected CHO transformants grew in the medium but the non-transfected cells gradually died, accordingly the medium was exchanged on Days 1 and 2 after the initiation of incubation to remove the cells died. Approximately 20 colonies of the CHO transformants that kept growing on Days 8 to 10 after the incubation were isolated. From the cells in these colonies, cells showing high reactivity with the ligand peptide metastin (hereinafter merely referred to as hOT7T175/CHO) were selected to provide for the following experiment.
The intracellular Ca ion level-increasing activity of the synthetic peptide in hOT7T175/CHO was determined using FLIPR (Molecular Devices, Inc.).
hOT7T175/CHO was subcultured in DMEM supplemented with 10% dialyzed fetal bovine serum (hereinafter abbreviated as dFBS) (hereinafter referred to as 10% dFBS/DMEM) and provided for the experiment. The hOT7T175/CHO was suspended in 10% dFBS-DMEM in 15×10^4 cells/ml. The suspension was inoculated on a 96-well plate for FLIPR (Black Plate Clear Bottom, Coster, Inc.) at 200 μl/well (3.0×10^4 cells/200 μL/well), followed by incubation at 37° C. overnight in a 5% CO2 incubator (hereinafter referred to as the cell plate). Then, 21 ml of HANKS/HBSS (9.8 g of HANKS, 0.35 g of sodium hydrogencarbonate, 20 ml of 1M HEPES; after adjusting the pH to 7.4 with 1N sodium hydroxide, the mixture was sterilized by filtration), 210 μl of 250 mM Probenecid and 210 μl of fetal bovine serum (FBS) (HANKS/HBSS-Probenecid-FBS) were mixed.
Furthermore, 2 vials of Fluo3-AM (50 μg/vial) were dissolved in 21 μL of dimethylsulfoxide and 21 μL of 20% Pluronic acid. The resulting solution was added to and mixed with 10 ml of the HANKS/HBSS-Probenecid-FBS described above. After the culture medium was removed, the mixture was dispensed onto the cell plate in 100 μl each/well, followed by incubation at 37° C. for an hour in a 5% CO2 incubator (pigment loading). The peptide was dissolved in dimethylsulfoxide in 1×10^−3 M. The peptide solution was diluted with HANKS/HBSS containing 2.5 mM Probenecid, 0.2% BSA and 0.1% CHAPS. […]

SMILES | Specific Activity: intracellular Ca ion level-increasing activity [specific activity to Metastin (1-54)]
CNC(=N)NCCC[C@H](NC(=O)[C@H](CC(C)C)NC(=O)NNC(=O)[C@H](Cc1ccccc1)NC(=O)[C@@H](NC(=O)[C@H](CC(N)=O)NC(=O)[C@@H]1CCN1C(=O)[C@@H](Cc1ccc(O)cc1)NC(C)=O)[C@@H](C)O)C(=O)N[C@@H](Cc1c[nH]c2ccccc12)C(N)=O [Compound No. 720, Ac-D-Tyr-Aze(2)-Asn-Thr-Phe-AzaGly-Leu-Arg(Me)-Trp-NH2] (Ac-[dY][Aze]NTF[azaGly]L[Arg(Me)]W-NH2) | 0.8
CNC(=N)NCCC[C@H](NC(=O)[C@H](CC(C)C)NC(=O)NNC(=O)[C@H](Cc1ccccc1)NC(=O)[C@@H](NC(=O)[C@H](CC(N)=O)NC(=O)[C@@H]1CCCCN1C(=O)[C@@H](Cc1ccc(O)cc1)NC(C)=O)[C@@H](C)O)C(=O)N[C@@H](Cc1c[nH]c2ccccc12)C(N)=O [Compound No. 721, Ac-D-Tyr-Pic(2)-Asn-Thr-Phe-AzaGly-Leu-Arg(Me)-Trp-NH2] (Ac-[dY][Pip]NTF[azaGly]L[Arg(Me)]W-NH2) | 1.1
CNC(=N)NCCC[C@H](NC(=O)[C@H](CC(C)C)NC(=O)NNC(=O)[C@H](Cc1ccccc1)NC(=O)[C@@H](NC(=O)[C@H](CC(N)=O)NC(=O)[C@@H]1CCCN(C(=O)[C@@H](Cc2ccc(O)cc2)NC(C)=O)C1)[C@@H](C)O)C(=O)N[C@@H](Cc1c[nH]c2ccccc12)C(N)=O [Compound No. 722, Ac-D-Tyr-Pic(3)-Asn-Thr-Phe-AzaGly-Leu-Arg(Me)-Trp-NH2] (Ac-[dY][Nip(3R)]NTF[azaGly]L[Arg(Me)]W-NH2) | 2.2
CNC(=N)NCCC[C@H](NC(=O)[C@H](CC(C)C)NC(=O)NNC(=O)[C@H](Cc1ccccc1)NC(=O)[C@@H](NC(=O)[C@H](CC(N)=O)NC(=O)[C@@H]1C[C@@H](O)CN1C(=O)[C@@H](Cc1ccc(O)cc1)NC(C)=O)[C@@H](C)O)C(=O)N[C@@H](Cc1c[nH]c2ccccc12)C(N)=O [Compound No. 723, Ac-D-Tyr-Hyp-Asn-Thr-Phe-AzaGly-Leu-Arg(Me)-Trp-NH2] (Ac-[dY][Hyp]NTF[azaGly]L[Arg(Me)]W-NH2) | 2.0
CNC(=N)NCCC[C@H](NC(=O)[C@H](CC(C)C)NC(=O)NNC(=O)[C@H](Cc1ccccc1)NC(=O)[C@@H](NC(=O)[C@H](CC(N)=O)NC(=O)[C@@H]1CSCN1C(=O)[C@@H](Cc1ccc(O)cc1)NC(C)=O)[C@@H](C)O)C(=O)N[C@@H](Cc1c[nH]c2ccccc12)C(N)=O [Compound No. 724, Ac-D-Tyr-Thz-Asn-Thr-Phe-AzaGly-Leu-Arg(Me)-Trp-NH2] (Ac-[dY][Thz]NTF[azaGly]L[Arg(Me)]W-NH2) | 1.4
CNC(=N)NCCC[C@H](NC(=O)[C@H](CC(C)C)NC(=O)NNC(=O)[C@H](Cc1ccccc1)NC(=O)[C@@H](NC(=O)[C@H](CC(N)=O)NC(=O)c1ccccc1NC(=O)[C@@H](Cc1ccc(O)cc1)NC(C)=O)[C@@H](C)O)C(=O)N[C@@H](Cc1c[nH]c2ccccc12)C(N)=O [Compound No. 728, Ac-D-Tyr-Abz(2)-Asn-Thr-Phe-AzaGly-Leu-Arg(Me)-Trp-NH2] (Ac-[dY][2Abz]NTF[azaGly]L[Arg(Me)]W-NH2) | 3.2

The remaining lines, values ahead:

Specific Activity: intracellular Ca ion level-increasing activity [specific activity to Metastin (1-54)] | SMILES
3.6 | CNC(=N)NCCC[C@H](NC(=O)[C@H](CC(C)C)NC(=O)NNC(=O)[C@H](Cc1ccccc1)NC(=O)[C@@H](NC(=O)[C@H](CC(=O)NCc1ccccc1)NC(=O)[C@@H](Cc1c[nH]c2ccccc12)NC(=O)[C@@H](Cc1ccc(O)cc1)NC(C)=O)[C@@H](C)O)C(=O)N[C@@H](Cc1c[nH]c2ccccc12)C(N)=O [Compound No. 716, Ac-D-Tyr-D-Trp-Asp(NHBzl)-Thr-Phe-AzaGly-Leu-Arg(Me)-Trp-NH2] (Ac-[dY][dW]D(NHBn)TF[azaGly]L[Arg(Me)]W-NH2)
1.0 | CNC(=N)NCCC[C@H](NC(=O)[C@H](CC(C)C)NC(=O)NNC(=O)[C@H](Cc1ccccc1)NC(=O)[C@@H](NC(=O)[C@H](CNC(N)=O)NC(=O)[C@@H](Cc1c[nH]c2ccccc12)NC(=O)[C@@H](Cc1ccc(O)cc1)NC(C)=O)[C@@H](C)O)C(=O)N[C@@H](Cc1c[nH]c2ccccc12)C(N)=O [Compound No. 717, Ac-D-Tyr-D-Trp-Alb-Thr-Phe-AzaGly-Leu-Arg(Me)-Trp-NH2] (Ac-[dY][dW][Dap(CONH2)]TF[azaGly]L[Arg(Me)]W-NH2)
2.6 | CNC(=N)NCCC[C@H](NC(=O)[C@H](CC(C)C)NC(=O)NNC(=O)[C@H](Cc1ccccc1)NC(=O)[C@@H](NC(=O)[C@H](CNC(N)=O)NC(=O)[C@@H](Cc1ccncc1)NC(=O)[C@@H](Cc1ccc(O)cc1)NC(C)=O)[C@@H](C)O)C(=O)N[C@@H](Cc1c[nH]c2ccccc12)C(N)=O [Compound No. 718, Ac-D-Tyr-D-Pya(4)-Alb-Thr-Phe-AzaGly-Leu-Arg(Me)-Trp-NH2] (Ac-[dY][d4Pal][Dap(CONH2)]TF[azaGly]L[Arg(Me)]W-NH2)
2.7 | CNC(=N)NCCC[C@H](NC(=O)[C@H](CC(C)C)NC(=O)NNC(=O)[C@H](Cc1ccccc1)NC(=O)[C@@H](NC(=O)[C@H](CC(N)=O)NC(=O)[C@H](C)N(C)C(=O)[C@@H](Cc1ccc(O)cc1)NC(C)=O)[C@@H](C)O)C(=O)N[C@@H](Cc1c[nH]c2ccccc12)C(N)=O [Compound No. 725, Ac-D-Tyr-NMeAla-Asn-Thr-Phe-AzaGly-Leu-Arg(Me)-Trp-NH2] (Ac-[dY][NMeA]NTF[azaGly]L[Arg(Me)]W-NH2)
3.1 | CNC(=N)NCCC[C@H](NC(=O)[C@H](CC(C)C)NC(=O)NNC(=O)[C@H](Cc1ccccc1)NC(=O)[C@@H](NC(=O)[C@H](CC(N)=O)NC(=O)CNC(=O)[C@@H](Cc1ccc(O)cc1)NC(C)=O)[C@@H](C)O)C(=O)N[C@@H](Cc1c[nH]c2ccccc12)C(N)=O [Compound No. 726, Ac-D-Tyr-Gly-Asn-Thr-Phe-AzaGly-Leu-Arg(Me)-Trp-NH2] (Ac-[dY]GNTF[azaGly]L[Arg(Me)]W-NH2)
1.5 | CNC(=N)NCCC[C@H](NC(=O)[C@H](CC(C)C)NC(=O)NNC(=O)[C@H](Cc1ccccc1)NC(=O)[C@@H](NC(=O)[C@H](CC(N)=O)NC(=O)C(C)(C)NC(=O)[C@@H](Cc1ccc(O)cc1)NC(C)=O)[C@@H](C)O)C(=O)N[C@@H](Cc1c[nH]c2ccccc12)C(N)=O [Compound No. 727, Ac-D-Tyr-Aib-Asn-Thr-Phe-AzaGly-Leu-Arg(Me)-Trp-NH2] (Ac-[dY][Aib]NTF[azaGly]L[Arg(Me)]W-NH2)
8.8 | CNC(=N)NCCC[C@H](NC(=O)[C@H](CC(C)C)NC(=O)NNC(=O)[C@H](Cc1ccccc1)NC(=O)[C@@H](NC(=O)[C@H](CC(N)=O)NC(=O)CN(C)C(=O)[C@@H](Cc1ccc(O)cc1)NC(C)=O)[C@@H](C)O)C(=O)N[C@@H](Cc1c[nH]c2ccccc12)C(N)=O [Compound No. 731, Ac-D-Tyr-Sar-Asn-Thr-Phe-AzaGly-Leu-Arg(Me)-Trp-NH2] (Ac-[dY][Sar]NTF[azaGly]L[Arg(Me)]W-NH2)
